In ChEMBL document CHEMBL1125697, “Synthesis and pharmacological examination of 1-(3-methoxy-4-methylphenyl)-2-aminopropane and 5-methoxy-6-methyl-2-aminoindan: similarities to 3,4-(methylenedioxy)methamphetamine (MDMA)” (J Med Chem, 1991):

Species on record: Rattus norvegicus
Assay: Compound was evaluated for the uptake inhibition of [3H]-5-HT in rats
Assay type: functional

Structure (SMILES): COc1cc(CC(C)N)c(OC)cc1C (stereo unspecified) [DOM]
- IC50: 10.7 µM
